Laboratory results as given in ChEMBL document CHEMBL5137114, “Discovery of IHMT-MST1-58 as a Novel, Potent, and Selective MST1 Inhibitor for the Treatment of Type 1/2 Diabetes” (J Med Chem, 2022).
Calls of active or inactive are those of the source. The calls are words filed in the database; no cut-off is given here.

Experiments:
Mus musculus [1] = assay: Antidiabetic activity against 12 hrs fasted high fat diet-STZ-induced C57BL/6J mouse model of type 2 diabetes assessed as decrease in fasting blood glucose level at 50 mg/kg, po qd measured immediately (reference value: 20.3 mmol/L); type: functional
[2] = AUC (0 to t) in Beagle dog at 1 mg/kg, iv measured up to 12 hrs by LC-MS/MS analysis; type: ADME, organism-based, Canis lupus familiaris; design: time < 12 hrs, dose 1 mg/kg, route iv; settings: in vivo
[3] = system: Serine/threonine-protein kinase 4 (Rattus norvegicus); assay: Inhibition of TNF-alpha-stimulated MST1 phosphorylation in rat RIN-m5F cells incubated for 12 hrs by Western blotting analysis; settings: dose 0.1-10 µM, DDE = dose-dependent effect
[4] = molecular target: T1, Serine/threonine-protein kinase Nek3 (Homo sapiens, UniProt P51956); assay: Inhibition of recombinant full length N-terminal GST -tagged human NEK3 expressed in baculovirus expression system using S2 as substrate incubated for 2 hrs by HTRF assay
T1 sequence (P51956 whole entry): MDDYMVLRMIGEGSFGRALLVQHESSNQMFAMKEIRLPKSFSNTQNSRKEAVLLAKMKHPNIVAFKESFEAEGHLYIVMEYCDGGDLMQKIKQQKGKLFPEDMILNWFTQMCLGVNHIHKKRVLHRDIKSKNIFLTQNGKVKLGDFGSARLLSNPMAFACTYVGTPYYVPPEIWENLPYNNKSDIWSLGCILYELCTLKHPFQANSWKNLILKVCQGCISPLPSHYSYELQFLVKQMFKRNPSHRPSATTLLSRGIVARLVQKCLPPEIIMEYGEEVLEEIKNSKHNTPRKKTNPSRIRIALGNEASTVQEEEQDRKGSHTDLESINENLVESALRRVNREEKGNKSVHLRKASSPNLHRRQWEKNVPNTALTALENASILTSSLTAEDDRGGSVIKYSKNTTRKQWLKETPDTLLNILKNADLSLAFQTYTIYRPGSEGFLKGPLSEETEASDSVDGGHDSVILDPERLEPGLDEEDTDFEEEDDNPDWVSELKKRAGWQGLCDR

[5] = system: Serine/threonine-protein kinase 4 (Rattus norvegicus); assay: Inhibition of IL-1beta-stimulated MST1 in rat INS1 cells assessed as reduction in MOB1 autophosphorylation incubated for 12 hrs by Western blotting analysis; settings: dose 0.1-10 µM, DDE = dose-dependent effect
[6] = Half life in mouse at 10 mg/kg, po measured up to 24 hrs by LC-MS/MS analysis; type: ADME, organism-based; settings: in vivo
[7] = Cmax in mouse at 10 mg/kg, po measured up to 24 hrs by LC-MS/MS analysis; type: ADME, organism-based; design: dose 10 mg/kg, time < 24 hrs, route po; settings: in vivo
[8] = AUC (0 to t) in mouse plasma at 50 mg/kg, po measured up to 24 hrs by LC-MS/MS analysis; type: ADME, organism-based; design: dose 50 mg/kg, time < 24 hrs, route po
[9] = Clearance in mouse plasma at 50 mg/kg, po measured up to 24 hrs by LC-MS/MS analysis; type: ADME, organism-based
Mus musculus [10] = assay: Antidiabetic activity against multi low dose STZ-induced C57BL/6J mouse model of type 1 diabetes assessed as food intake at 50 mg/kg, po administered for 1 to 2 days (reference value: 4.5 g/day); type: functional; settings: time 1-2 day
Mus musculus [11] = assay: Antidiabetic activity against 8 hrs fasted multi low dose STZ-induced C57BL/6J mouse model of type 1 diabetes assessed as decrease in fasting blood glucose level at 50 mg/kg, po administered for 77 days (reference value: 22.3 mmol/L); type: functional; settings: time 77 day
[12] = molecular target: T2, Serine/threonine-protein kinase Nek3 (Homo sapiens) (UniProt P51956); assay: Binding affinity to wild-type human full length NEK3 (M1 to R506 residues) expressed in mammalian expression system at 1 uM by Kinomescan method
T2 sequence (whole entry): T1 sequence (P51956 whole entry)

[13] = Half life in Sprague-Dawley rat at 10 mg/kg, po measured up to 24 hrs by LC-MS/MS analysis; type: ADME, organism-based; settings: in vivo
[14] = Toxicity in high multi low dose STZ-induced C57BL/6J mouse model of Type 1 diabetes assessed as effect on body weight at 50 mg/kg, po qd in presence of metformin; type: organism-based; settings: in vivo
[15] = Toxicity in high fat diet-STZ-induced C57BL/6J mouse model of type 2 diabetes assessed as effect on pancreas morphology at 250 mg/kg, po qd in presence of metformin by H and E staining based analysis; type: organism-based; settings: in vivo
[16] = molecular target: T3, Serine/threonine-protein kinase 3 (Homo sapiens, UniProt Q13188); assay: Binding affinity to wild-type human partial length MST2 (D17 to E318 residues) expressed in bacterial expression system by Kinomescan method
T3 sequence (Q13188 whole entry): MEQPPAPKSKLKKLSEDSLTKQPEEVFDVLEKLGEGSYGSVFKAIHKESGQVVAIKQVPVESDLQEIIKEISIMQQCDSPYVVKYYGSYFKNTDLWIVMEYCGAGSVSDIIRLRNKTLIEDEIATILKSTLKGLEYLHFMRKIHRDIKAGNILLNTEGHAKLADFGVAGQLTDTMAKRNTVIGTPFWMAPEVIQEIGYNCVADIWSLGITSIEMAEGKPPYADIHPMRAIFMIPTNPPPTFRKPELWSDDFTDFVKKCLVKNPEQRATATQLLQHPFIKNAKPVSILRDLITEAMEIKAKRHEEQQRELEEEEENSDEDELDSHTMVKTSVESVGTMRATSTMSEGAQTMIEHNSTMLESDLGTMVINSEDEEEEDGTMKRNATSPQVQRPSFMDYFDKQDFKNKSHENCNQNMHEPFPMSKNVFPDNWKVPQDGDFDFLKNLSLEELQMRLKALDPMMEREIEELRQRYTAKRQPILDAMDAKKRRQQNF

[17] = system: Serine/threonine-protein kinase 4 (Rattus norvegicus); assay: Inhibition of IL-1beta-stimulated MST1 phosphorylation in rat RIN-m5F cells incubated for 12 hrs by Western blotting analysis; settings: dose 0.1-10 µM, DDE = dose-dependent effect
RIN-m5F = assay: Protection against IL-1beta-induced cell damage in rat RIN-m5F cells assessed as increase in cell survival at 0.03 to 0.3 uM incubated for 48 hrs by Cell Titer-Glo assay; type: functional, cell-based; settings: dose 0.03-0.3 µM
Mus musculus [18] = assay: Antidiabetic activity against 12 hrs fasted high fat diet-STZ-induced C57BL/6J mouse model of type 2 diabetes assessed as decrease in fasting blood glucose level at 50 mg/kg, po qd administered measured immediately in presence of metformin (reference value: 20.3 mmol/L); type: functional
[19] = system: Serine/threonine-protein kinase 4 (Rattus norvegicus); assay: Inhibition of INF-gamma-stimulated MST1 phosphorylation in rat INS1 cells incubated for 12 hrs by Western blotting analysis; settings: dose 0.1-10 µM, DDE = dose-dependent effect

AUC(0-t) at 12 h [2]: 764 ng·h/mL
inhibition [3]: Dde
IC50 [4]: > 10 µM
inhibition [5]: Dde
half-life [6]: 1.81 h
Cmax [7]: 1920 ng/mL
AUC(0-t) at 24 h [8]: 13600 ng·h/mL
CL/F [9]: 62.2 mL/min/kg
Activity [12]: Active
half-life [13]: 3.03 h
Kd [16]: 2.7 µM
inhibition [17]: Dde
inhibition [19]: Dde
SMILES: Cc1ccccc1C1C(=O)N(C)c2cnc(Nc3ccc(S(N)(=O)=O)cc3)nc2N1C (stereo not given)
Activity (Mus musculus [1]): 20.2 mmol/L
Activity (Mus musculus [10]): 4.5 g/day
Activity (Mus musculus [11]): 14.2 mmol/L
Activity [14]: Non-Toxic
Activity [15]: Non-Toxic
Activity (RIN-m5F): Active
Activity (Mus musculus [18]): 20.3 mmol/L
